The target of the experiment is Lpg2936 (Legionella pneumophila, UniProt Q5ZRE6). Put plainly: biochemical.

The results in this text go back to publication PMC5699498 (Protein Science : A Publication of the Protein Society, 2017).

SMILES strings stand for the structures.

Chain of Lpg2936 (Q5ZRE6 1-244 limits assumed): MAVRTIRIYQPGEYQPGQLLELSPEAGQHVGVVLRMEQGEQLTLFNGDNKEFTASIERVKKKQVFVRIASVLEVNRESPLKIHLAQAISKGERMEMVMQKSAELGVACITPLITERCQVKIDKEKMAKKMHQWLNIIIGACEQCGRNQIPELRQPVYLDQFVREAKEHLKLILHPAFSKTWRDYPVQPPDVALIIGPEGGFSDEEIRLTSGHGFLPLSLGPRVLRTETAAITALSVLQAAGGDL

Regarding `C[S+](CC[C@H](N)C(=O)O)C[C@H]1O[C@@H](n2cnc3c(N)ncnc32)[C@H](O)[C@@H]1O` (stereo partly shown) [S‐adenosyl‐L‐methionine], the Kd (commonly the concentration at which binding is half-saturated) was 12 nM.
